Measured values reported in ChEMBL document CHEMBL5724914, “Linking interpersonal differences in gut microbiota composition and drug biotransformation activity” (2024).

Tests used:
[1] = (§1) The drug is tested on Z-011 corresponding to mouse gut metagenome with ENA study accession number: PRJEB37062 and ENA sample accession number: ERS12561811 for biotransformation under anaerobic condition. The drug concentrations were measured over 9 timepoints collected between 0 and 24 hours of incubation by liquid-chromatography-coupled mass spectrometry (LC–MS); conditions: 2 µM
[2] = human gut metagenome, 24 h, 2 µM
[3] = human gut metagenome, 24 h, 2 µM; remark: listed apart in the source
[4] = human gut metagenome, 24 h, 2 µM; remark: listed apart in the source
[5] = human gut metagenome, 24 h, 2 µM; remark: listed apart in the source
[6] = as §1, with “Z-004” for “Z-011”, “to” for “to mouse gut”, “ERS12561804” for “ERS12561811”; conditions: 2 µM
[7] = as §1, with “Z-003” for “Z-011”, “pig” for “mouse”, “ERS12561803” for “ERS12561811”; conditions: 2 µM
[8] = as §1, with “WLS-086” for “Z-011”, “human” for “mouse”, “ERS12561752” for “ERS12561811”; conditions: 2 µM
[9] = as §1, with “WLS-027” for “Z-011”, “human” for “mouse”, “ERS12561744” for “ERS12561811”; conditions: 2 µM
[10] = as §1, with “Z-007” for “Z-011”, “rat” for “mouse”, “ERS12561807” for “ERS12561811”; conditions: 2 µM
[11] = as §1, with “WLS-220” for “Z-011”, “human” for “mouse”, “ERS12561769” for “ERS12561811”; conditions: 2 µM
[12] = as §1, with “WLS-170” for “Z-011”, “human” for “mouse”, “ERS12561762” for “ERS12561811”; conditions: 2 µM
[13] = human gut metagenome, 24 h, 2 µM; remark: listed apart in the source
[14] = human gut metagenome, 24 h, 2 µM; remark: listed apart in the source
[15] = as §1, with “WLS-069” for “Z-011”, “human” for “mouse”, “ERS12561748” for “ERS12561811”; conditions: 2 µM
[16] = human gut metagenome, 24 h, 2 µM; remark: listed apart in the source
[17] = as §1, with “Z-018” for “Z-011”, “pig” for “mouse”, “ERS12561817” for “ERS12561811”; conditions: 2 µM
[18] = human gut metagenome, 24 h, 2 µM; remark: listed apart in the source
[19] = as §1, with “Z-028” for “Z-011”, “ERS12561827” for “ERS12561811”; conditions: 2 µM
[20] = as §1, with “Z-022” for “Z-011”, “ERS12561821” for “ERS12561811”; conditions: 2 µM
Also: call rule not given here.

SMILES	Bacterial Biotransformation [1]	Bacterial Biotransformation [2]	Bacterial Biotransformation [3]	Bacterial Biotransformation [4]	Bacterial Biotransformation [5]	Bacterial Biotransformation [6]	Bacterial Biotransformation [7]	Bacterial Biotransformation [8]	Bacterial Biotransformation [9]	Bacterial Biotransformation [10]	Bacterial Biotransformation [11]	Bacterial Biotransformation [12]	Bacterial Biotransformation [13]	Bacterial Biotransformation [14]	Bacterial Biotransformation [15]	Bacterial Biotransformation [16]	Bacterial Biotransformation [17]	Bacterial Biotransformation [18]	Bacterial Biotransformation [19]	Bacterial Biotransformation [20]
O=P(O)(O)O.c1ccc(CN(CC2=NCCN2)c2ccccc2)cc1 [ANTAZOLINE PHOSPHATE]	Compound NOT metabolized	Compound NOT metabolized	Compound metabolized	Compound metabolized	Compound metabolized	Compound metabolized	Compound metabolized	Compound metabolized	Compound NOT metabolized	Compound NOT metabolized	Compound metabolized	Compound metabolized	Compound NOT metabolized	Compound NOT metabolized	Compound NOT metabolized	Compound NOT metabolized	Compound NOT metabolized	Compound NOT metabolized	Compound NOT metabolized	Compound NOT metabolized
CN1CCC(=C2c3ccccc3CCc3cccnc32)CC1.O=C(O)/C=C\C(=O)O.O=C(O)/C=C\C(=O)O [AZATADINE MALEATE]	Compound NOT metabolized	Compound NOT metabolized	Compound NOT metabolized	Compound NOT metabolized	Compound NOT metabolized	Compound NOT metabolized	Compound NOT metabolized	Compound NOT metabolized	Compound NOT metabolized	Compound NOT metabolized	Compound NOT metabolized	Compound NOT metabolized	Compound NOT metabolized	Compound NOT metabolized	Compound NOT metabolized	Compound NOT metabolized	Compound NOT metabolized	Compound NOT metabolized	Compound NOT metabolized	Compound NOT metabolized
CC(=O)OCC(=O)[C@@]1(O)[C@@H](C)C[C@H]2[C@@H]3CCC4=CC(=O)C=C[C@]4(C)[C@@]3(F)[C@@H](O)C[C@@]21C [BETAMETHASONE ACETATE]	Compound metabolized	Compound metabolized	Compound metabolized	Compound metabolized	Compound metabolized	Compound NOT metabolized	Compound metabolized	Compound metabolized	Compound metabolized	Compound NOT metabolized	Compound metabolized	Compound metabolized	Compound metabolized	Compound metabolized	Compound metabolized	Compound NOT metabolized	Compound NOT metabolized	Compound metabolized	Compound metabolized	Compound metabolized
CC(C)NCC(O)COc1ccc(CCOCC2CC2)cc1 (stereo not given) [BETAXOLOL]	Compound NOT metabolized	Compound NOT metabolized	Compound NOT metabolized	Compound metabolized	Compound metabolized	Compound metabolized	Compound NOT metabolized	Compound metabolized	Compound NOT metabolized	Compound NOT metabolized	Compound NOT metabolized	Compound metabolized	Compound NOT metabolized	Compound NOT metabolized	Compound NOT metabolized	Compound NOT metabolized	Compound NOT metabolized	Compound NOT metabolized	Compound NOT metabolized	Compound NOT metabolized
CC(C)(Oc1ccc(CCNC(=O)c2ccc(Cl)cc2)cc1)C(=O)O [BEZAFIBRATE]	Compound NOT metabolized	Compound metabolized	Compound NOT metabolized	Compound metabolized	Compound metabolized	Compound NOT metabolized	Compound metabolized	Compound metabolized	Compound metabolized	Compound NOT metabolized	Compound metabolized	Compound metabolized	Compound metabolized	Compound NOT metabolized	Compound metabolized	Compound NOT metabolized	Compound NOT metabolized	Compound metabolized	Compound NOT metabolized	Compound metabolized
CC(O)(CS(=O)(=O)c1ccc(F)cc1)C(=O)Nc1ccc(C#N)c(C(F)(F)F)c1 (stereo not given) [BICALUTAMIDE]	Compound NOT metabolized	Compound NOT metabolized	Compound NOT metabolized	Compound NOT metabolized	Compound NOT metabolized	Compound NOT metabolized	Compound NOT metabolized	Compound NOT metabolized	Compound NOT metabolized	Compound NOT metabolized	Compound NOT metabolized	Compound NOT metabolized	Compound NOT metabolized	Compound NOT metabolized	Compound NOT metabolized	Compound NOT metabolized	Compound NOT metabolized	Compound NOT metabolized	Compound NOT metabolized	Compound NOT metabolized
CCCC1O[C@@H]2C[C@H]3[C@@H]4CCC5=CC(=O)C=C[C@]5(C)[C@H]4[C@@H](O)C[C@]3(C)[C@]2(C(=O)CO)O1 (stereo not given in full) [BUDESONIDE]	Compound metabolized	Compound NOT metabolized	Compound metabolized	Compound metabolized	Compound metabolized	Compound NOT metabolized	Compound metabolized	Compound metabolized	Compound metabolized	Compound NOT metabolized	Compound metabolized	Compound metabolized	Compound metabolized	Compound metabolized	Compound metabolized	Compound metabolized	Compound metabolized	Compound metabolized	Compound metabolized	Compound NOT metabolized
O=C(NCc1ccccc1)OCCO [BURAMATE]	Compound NOT metabolized	Compound NOT metabolized	Compound NOT metabolized	Compound NOT metabolized	Compound NOT metabolized	Compound NOT metabolized	Compound NOT metabolized	Compound NOT metabolized	Compound NOT metabolized	Compound NOT metabolized	Compound NOT metabolized	Compound NOT metabolized	Compound NOT metabolized	Compound NOT metabolized	Compound NOT metabolized	Compound NOT metabolized	Compound NOT metabolized	Compound NOT metabolized	Compound NOT metabolized	Compound NOT metabolized
